According to publication PMC8667043, “First-in-Class Inhibitors of the Ribosomal Oxygenase MINA53” (Journal of Medicinal Chemistry, 2021):

What was measured:
KDM4 = test: Immunofluorescence of histone methyl mark H3K9me3 in U-87MG cells; format: cell-based, human; conditions: 50 μM, 48 h
Description: (§1) For immunofluorescence (IF) analysis, 50 × 10^4 U-87MG cells were grown on sterile coverslips. Twenty-four hours after plating, the cells were treated with the different compounds (IOX-1 at 100 μM, GSK-J4 at 10 μM, CPI-455 at 25 μM, and both MINA53 inhibitors 9 and 10 at 50 μM) for 48 h. IF staining for different trimethylated lysine residues of histone H3 ([…]) were carried out on PFA-fixed cells blocked with 20% goat serum in PBS (1 h, RT) and incubated overnight at 4 °C with primary rabbit polyclonal antibodies against H3K4me3 (Cell Signaling, C42D8, 1:400), H3K9me3 (Cell Signaling, D4W1U, 1:400), and H3K27me3 (Cell Signaling, C36B11, 1:400). Primary antibodies were detected using rabbit anti-IgG secondary antibodies conjugated with either Cy3 (Jackson Immunoresearch 711-165-152). DNA was stained using 0.05 μg/mL 4′,6-diamidino-2-phenylindole (DAPI), and after washing, the coverslips were mounted in Vectashield mounting media. […]
(§2) For quantification of fluorescence intensity signals, images of untreated or treated cells were analyzed and processed using open-source Cell Profiler 4.1.3 image analysis software (https://cellprofiler.org/) to measure fluorescence-integrated intensity values for antibody-binding relating to individual cells. […]

KDM6 = test: Immunofluorescence of histone methyl mark H3K27me3 in U-87MG cells; format: cell-based, human; conditions: 50 μM, 48 h
Description: as §1, §2

KDM5 = test: Immunofluorescence of histone methyl mark H3K4me3 in U-87MG cells; format: cell-based, human; conditions: 50 μM, 48 h
Description: as §1, §2

HA-tagged NO66 = biological target: T1, HA-tagged NO66 (Homo sapiens, UniProt Q9H6W3); test: Substrate trapping by anti-HA immunoprecipitation (RPL8); format: cell-based; conditions: HEK293T cells; 100 μM, 18 h
T1 construct: expressed in transfected cells; host or cells: HEK293T (transient, pEF6 vector)
Description: Proteins were transferred onto nitrocellulose or PVDF membranes and incubated with rabbit γ-H2AX (#9718, Cell Signaling Technologies, MA) anti-GAPDH (Sc47724, Santa Cruz Biotechnology, Santa Cruz, CA), rabbit anti-RPL27A (Abcam, ab74731), goat anti-RPL8 (Abcam, ab63941), horseradish peroxidase (HRP)-conjugated anti-HA (Roche, 12013819001), and HRP-conjugated anti-β-actin (Abcam, ab-49900).
For immunoprecipitation, the cells were harvested on ice and lysed by rotation for 1 h at 4 °C in JIES buffer. The cell debris was subsequently pelleted by centrifugation (10 min at 21 910g at 4 °C), and the supernatant was incubated overnight at 4 °C with Pierce anti-HA agarose beads (Thermo Scientific, 26181). The next day, the beads were washed 6 times with JIES buffer before the immunoprecipitates were eluted for 15 min at 1400 rpm at room temperature using 1 mg/mL HA peptide (Thermo Scientific, 26184) dissolved in JIES buffer. The eluted samples were then prepared in 1× Laemmli loading buffer (6x: 125 mM Tris-HCl [pH 6.8], 6% (w/v) SDS, 50% (v/v) glycerol, 225 mM dithiothreitol (DTT), and 0.1% (w/v) bromophenol blue) and boiled for 5 min for detection by western blot.
Plasmid DNA transfections were performed using a FuGENE 6 transfection reagent (Promega, E2691). […]

T1 sequence (Q9H6W3 whole entry): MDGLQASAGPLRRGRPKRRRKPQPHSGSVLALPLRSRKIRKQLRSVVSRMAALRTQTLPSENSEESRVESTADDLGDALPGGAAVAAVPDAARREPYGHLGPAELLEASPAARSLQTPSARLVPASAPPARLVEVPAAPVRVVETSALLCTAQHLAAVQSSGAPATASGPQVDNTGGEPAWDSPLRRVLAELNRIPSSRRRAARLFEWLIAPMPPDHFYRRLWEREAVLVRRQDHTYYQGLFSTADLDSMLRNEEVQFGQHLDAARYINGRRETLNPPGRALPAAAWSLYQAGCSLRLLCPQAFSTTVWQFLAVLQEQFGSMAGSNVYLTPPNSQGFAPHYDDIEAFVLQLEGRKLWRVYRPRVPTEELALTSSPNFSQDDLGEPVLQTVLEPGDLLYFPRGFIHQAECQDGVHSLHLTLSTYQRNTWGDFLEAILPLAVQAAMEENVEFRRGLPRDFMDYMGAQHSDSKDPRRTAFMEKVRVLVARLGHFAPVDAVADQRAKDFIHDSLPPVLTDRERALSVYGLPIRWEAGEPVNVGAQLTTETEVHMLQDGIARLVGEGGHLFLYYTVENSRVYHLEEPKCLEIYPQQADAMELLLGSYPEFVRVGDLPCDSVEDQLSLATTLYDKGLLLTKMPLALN

Row | Compound | level of histone methyl mark H3K9me3 (KDM4 selectivity) (KDM4) | level of histone methyl mark H3K27me3 (KDM6 selectivity) (KDM6) | level of histone methyl mark H3K4me3 (KDM5 selectivity) (KDM5) | trapping of RPL8 with HA-tagged NO66 (HA-tagged NO66)
1 | O=C(O)c1cnc(SCCc2ccccc2)[nH]c1=O [compound 9, 2-(Phenethylthio)-3,4-dihydro-4-oxopyrimidine-5-carboxylic Acid] | did not observe any evidence for an increase | did not observe any evidence for an increase | did not observe any evidence for an increase | did not observe evidence
2 | O=C(O)c1cnc(SCCCc2ccccc2)[nH]c1=O [compound 10, 2-((3-Phenylpropyl)thio)-3,4-dihydro-4-oxopyrimidine-5-carboxylic Acid] | did not observe any evidence for an increase | did not observe any evidence for an increase | did not observe any evidence for an increase | did not observe evidence
